In ChEMBL document CHEMBL1208753, “Peptide deformylase inhibitors with retro-amide scaffold: synthesis and structure-activity relationships” (Bioorg Med Chem Lett, 2010):
Converted amounts (≈) assume the structure as drawn.

How the values were obtained:
Peptide deformylase = molecular target: T1, Peptide deformylase (Pseudomonas aeruginosa (strain ATCC 15692 / PAO1 / 1C / PRS 101 / LMG12228), UniProt Q9I7A8); test: Inhibition of Pseudomonas aeruginosa Peptide deformylase by fluorescence analysis
T1 sequence (Q9I7A8 whole entry): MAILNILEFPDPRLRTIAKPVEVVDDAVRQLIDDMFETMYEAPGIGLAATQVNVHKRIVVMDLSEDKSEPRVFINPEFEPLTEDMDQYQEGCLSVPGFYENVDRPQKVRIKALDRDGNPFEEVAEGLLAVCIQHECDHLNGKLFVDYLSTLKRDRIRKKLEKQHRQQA

Moraxella catarrhalis = test: Antimicrobial activity against Moraxella catarrhalis ATCC 43617 after 48 hrs; type: functional; conditions: ATCC 43617, 48 h
Haemophilus influenzae = test: Antimicrobial activity against Haemophilus influenzae ATCC 51907 after 24 hrs; type: functional; conditions: ATCC 51907, 24 h
Streptococcus pneumoniae = test: Antimicrobial activity against Streptococcus pneumoniae ATCC 6305 after 48 hrs; type: functional; conditions: ATCC 6305, 48 h

Structure (SMILES)	IC50 (Peptide deformylase) [µM]	MIC (Moraxella catarrhalis) [µg/mL]	MIC (Haemophilus influenzae) [µg/mL]	MIC (Streptococcus pneumoniae) [µg/mL]
COc1ccccc1NC(=O)N[C@@H](C)C(=O)N(CC(=O)NO)CC1CCCC1	0.042	12.5 (≈ 31.9 µM)	12.5 (≈ 31.9 µM)	6.3 (≈ 16.1 µM)
COc1ccccc1NC(=O)N[C@@H](Cc1ccccc1)C(=O)N(CC(=O)NO)CC1CCCC1	0.061	12.5 (≈ 26.7 µM)	25 (≈ 53.4 µM)	25 (≈ 53.4 µM)
COc1ccccc1NC(=O)N[C@@H](CC(C)C)C(=O)N(CC(=O)NO)CC1CCCC1	0.036	0.8 (≈ 1.84 µM)	3.2 (≈ 7.36 µM)	3.2 (≈ 7.36 µM)
COc1ccccc1NC(=O)N1CCC[C@H]1C(=O)N(CC(=O)NO)CC1CCCC1	0.116	50 (≈ 119 µM)	200 (≈ 478 µM)	200 (≈ 478 µM)
CC(C)C(=O)N[C@H](C(=O)N(CC(=O)NO)CC1CCCC1)C(C)(C)C	0.052	0.8 (≈ 2.25 µM)	50 (≈ 141 µM)	100 (≈ 281 µM)
CC(C)(C)[C@H](NC(=O)c1ccccc1)C(=O)N(CC(=O)NO)CC1CCCC1	0.041	0.1 (≈ 0.257 µM)	3.2 (≈ 8.22 µM)	12.5 (≈ 32.1 µM)
CC(C)(C)[C@H](NC(=O)N1CCCCC1)C(=O)N(CC(=O)NO)CC1CCCC1	0.047	0.8 (≈ 2.02 µM)	12.5 (≈ 31.5 µM)	12.5 (≈ 31.5 µM)
CN(C(=O)N[C@H](C(=O)N(CC(=O)NO)CC1CCCC1)C(C)(C)C)c1ccccc1	0.05	0.4 (≈ 0.956 µM)	25 (≈ 59.7 µM)	50 (≈ 119 µM)
CC(C)(C)[C@H](NC(=O)NC1CCCCC1)C(=O)N(CC(=O)NO)CC1CCCC1	0.055	0.1 (≈ 0.244 µM)	6.3 (≈ 15.3 µM)	6.3 (≈ 15.3 µM)
COCCNC(=O)N[C@H](C(=O)N(CC(=O)NO)CC1CCCC1)C(C)(C)C	0.042	0.1 (≈ 0.259 µM)	6.3 (≈ 16.3 µM)	6.3 (≈ 16.3 µM)
CC(C)(C)[C@H](NC(=O)Nc1ccccn1)C(=O)N(CC(=O)NO)CC1CCCC1	0.054	0.1 (≈ 0.247 µM)	0.8 (≈ 1.97 µM)	12.5 (≈ 30.8 µM)
CC(C)(C)[C@H](NC(=O)Nc1ccncc1)C(=O)N(CC(=O)NO)CC1CCCC1	0.065	0.2 (≈ 0.493 µM)	6.3 (≈ 15.5 µM)	25 (≈ 61.7 µM)
CC(C)(C)[C@H](NC(=O)Nc1cccnc1)C(=O)N(CC(=O)NO)CC1CCCC1	0.049	0.1 (≈ 0.247 µM)	3.2 (≈ 7.89 µM)	6.3 (≈ 15.5 µM)

These reach a lower IC50 (Peptide deformylase). Values come first.

IC50 (Peptide deformylase) [µM]	MIC (Moraxella catarrhalis) [µg/mL]	MIC (Haemophilus influenzae) [µg/mL]	MIC (Streptococcus pneumoniae) [µg/mL]	Structure (SMILES)
0.032	0.2 (≈ 0.46 µM)	1.6 (≈ 3.68 µM)	3.2 (≈ 7.36 µM)	CC[C@@H](C)[C@H](NC(=O)Nc1ccccc1OC)C(=O)N(CC(=O)NO)CC1CCCC1
0.031	0.1 (≈ 0.223 µM)	0.8 (≈ 1.78 µM)	0.4 (≈ 0.892 µM)	COc1ccccc1NC(=O)N[C@H](C(=O)N(CCC1CCCC1)CC(=O)NO)C(C)(C)C
0.029	0.1 (≈ 0.23 µM)	0.2 (≈ 0.46 µM)	0.2 (≈ 0.46 µM)	COc1ccccc1NC(=O)N[C@H](C(=O)N(CC(=O)NO)CC1CCCC1)C(C)(C)C
0.028	0.2 (≈ 0.502 µM)	12.5 (≈ 31.4 µM)	25 (≈ 62.7 µM)	CC(C)(C)[C@H](NC(=O)N1CCOCC1)C(=O)N(CC(=O)NO)CC1CCCC1
0.021	0.1 (≈ 0.237 µM)	0.8 (≈ 1.89 µM)	0.8 (≈ 1.89 µM)	COc1ccccc1NC(=O)N[C@H](C(=O)N(CCC(C)C)CC(=O)NO)C(C)(C)C
0.019	0.2 (≈ 0.506 µM)	1.6 (≈ 4.05 µM)	12.5 (≈ 31.6 µM)	CC(C)(C)[C@H](NC(=O)c1cccs1)C(=O)N(CC(=O)NO)CC1CCCC1
0.017	0.1 (≈ 0.247 µM)	0.4 (≈ 0.989 µM)	3.2 (≈ 7.91 µM)	CC(C)(C)[C@H](NC(=O)Nc1ccccc1)C(=O)N(CC(=O)NO)CC1CCCC1
0.015	1.6 (≈ 3.94 µM)	6.3 (≈ 15.5 µM)	12.5 (≈ 30.8 µM)	COc1ccccc1NC(=O)N[C@H](C(=O)N(CC(=O)NO)CC1CC1)C(C)(C)C
0.013	0.1 (≈ 0.238 µM)	0.4 (≈ 0.951 µM)	0.4 (≈ 0.951 µM)	COc1ccccc1NC(=O)N[C@H](C(=O)N(CC(=O)NO)CC1CCC1)C(C)(C)C
0.013	0.1 (≈ 0.238 µM)	0.8 (≈ 1.9 µM)	0.8 (≈ 1.9 µM)	COc1ccccc1NC(=O)N[C@H](C(=O)N(CC(=O)NO)CC1CCCC1)C(C)C
0.011	0.1 (≈ 0.238 µM)	0.4 (≈ 0.953 µM)	50 (≈ 119 µM)	COc1ccccc1C(=O)N[C@H](C(=O)N(CC(=O)NO)CC1CCCC1)C(C)(C)C
